Measured values taken from patent US20120283428A1, “HYALURONIC ACID DERIVATIVE EFFECTIVE AGAINST ATOPIC DERMATITIS, AND METHOD FOR MANUFACTURING SAME” (CELLINBIO CO.,LTD, priority 2009, published 2012).

Test system: PGE2
Experiment: PGE2 level in LPS-stimulated macrophage cell-line, ELISA
Format: cell-based, mouse
Conditions: RAW 264.7, 500 ng/ml LPS, 10 mg/ml test substance, 24 hours, compared to control (FIG. 2)
Description: As a positive control, ascorbic acid (AA) and a mixture of hyaluronic acid and ascorbic acid (HA+AA) was used in this Example. PGE2 is a substance causing inflammation, edema, pain and fever in body. Microphage cell-line (RAW 264.7) was inoculated into medium containing DMEM (Dulbecco's modified Eagle's medium)/FBS (Fetal Bovine Serum) under a condition of […] of CO2 concentration at a temperature of 37° C. in order to culture the cell-line. […] The complete medium was cultured additionally for 24 hours, and then PGE2 level in supernatant of medium was assayed by ELISA (enzyme-linked Immunosorbent Assay) analysis. […] Each well was washed, and then substrate solution was added.

O=C1O[C@H]([C@@H](O)CO)C(O)=C1O [AA, ascorbic acid]
PGE2 level in supernatant of medium: decrease PGE2 significantly
